Experimental data published in the supplement of paper PMC13380429.

Columns and labels:
Conditions in all cases: 72 h
Caco-2 [1] = test: cell viability relative to DMSO; higher = less toxic
Calu-3 [2] = test: as above
HepG2 [3] = test: as above
Vero E6 [4] = test: as above
Caco-2 [5] = test: relative viability EC50 (midpoint between 100% and the lowest measured viability); higher = less toxic
Calu-3 [6] = test: as above
HepG2 [7] = test: as above
Vero E6 [8] = test: as above
Caco-2 [9] = test: drug sensitivity score (DSS) for viability; higher = more toxic; extreme values may be limits of the assay
Calu-3 [10] = test: as above
HepG2 [11] = test: as above
Vero E6 [12] = test: as above
U2OS [13] = test: cell viability relative to DMSO; higher = less toxic
U2OS [14] = test: relative viability EC50 (midpoint between 100% and the lowest measured viability); higher = less toxic
U2OS [15] = test: drug sensitivity score (DSS) for viability; higher = more toxic; extreme values may be limits of the assay

CCc1ccc2c(-c3cccc(Cl)c3)nc(=O)n(CC)c2n1 [YM-976]
cell viability (Caco-2 [1]; 1 nM): 104% | cell viability (Caco-2 [1]; 10 nM): 95.6% | cell viability (Caco-2 [1]; 100 nM): 104% | cell viability (Caco-2 [1]; 1000 nM): 109% | cell viability (Caco-2 [1]; 10000 nM): 97.1% | cell viability (Calu-3 [2]; 1 nM): 109% | cell viability (Calu-3 [2]; 10 nM): 98.7% | cell viability (Calu-3 [2]; 100 nM): 101% | cell viability (Calu-3 [2]; 1000 nM): 98.3% | cell viability (Calu-3 [2]; 10000 nM): 108% | cell viability (HepG2 [3]; 1 nM): 95.9% | cell viability (HepG2 [3]; 10 nM): 104% | cell viability (HepG2 [3]; 100 nM): 97% | cell viability (HepG2 [3]; 1000 nM): 103% | cell viability (HepG2 [3]; 10000 nM): 86.3% | cell viability (Vero E6 [4]; 1 nM): 96.6% | cell viability (Vero E6 [4]; 10 nM): 97.3% | cell viability (Vero E6 [4]; 100 nM): 92.3% | cell viability (Vero E6 [4]; 1000 nM): 90.1% | cell viability (Vero E6 [4]; 10000 nM): 91.9% | relative viability EC50 (Caco-2 [5]): > 10 µM | relative viability EC50 (Calu-3 [6]): > 10 µM | relative viability EC50 (HepG2 [7]): > 10 µM | relative viability EC50 (Vero E6 [8]): > 10 µM | drug sensitivity score (Caco-2 [9]): 0 | drug sensitivity score (Calu-3 [10]): 0 | drug sensitivity score (HepG2 [11]): 0.1 | drug sensitivity score (Vero E6 [12]): 0

OC[C@H]1O[C@H]([S-])[C@H](O)[C@@H](O)[C@@H]1O.[Au+] [aurothioglucose]
cell viability (Caco-2 [1]; 1 nM): 108% | cell viability (Caco-2 [1]; 10 nM): 92.2% | cell viability (Caco-2 [1]; 100 nM): 98.7% | cell viability (Caco-2 [1]; 1000 nM): 91.3% | cell viability (Caco-2 [1]; 10000 nM): 84.2% | cell viability (Calu-3 [2]; 1 nM): 101% | cell viability (Calu-3 [2]; 10 nM): 92.1% | cell viability (Calu-3 [2]; 100 nM): 97.3% | cell viability (Calu-3 [2]; 1000 nM): 106% | cell viability (Calu-3 [2]; 10000 nM): 100% | cell viability (HepG2 [3]; 1 nM): 90.4% | cell viability (HepG2 [3]; 10 nM): 106% | cell viability (HepG2 [3]; 100 nM): 106% | cell viability (HepG2 [3]; 1000 nM): 120% | cell viability (HepG2 [3]; 10000 nM): 97.5% | cell viability (U2OS [13]; 1 nM): 96.1% | cell viability (U2OS [13]; 10 nM): 98.4% | cell viability (U2OS [13]; 100 nM): 98.7% | cell viability (U2OS [13]; 1000 nM): 91.8% | cell viability (U2OS [13]; 10000 nM): 27.4% | cell viability (Vero E6 [4]; 1 nM): 87.3% | cell viability (Vero E6 [4]; 10 nM): 91.2% | cell viability (Vero E6 [4]; 100 nM): 86.7% | cell viability (Vero E6 [4]; 1000 nM): 89.5% | cell viability (Vero E6 [4]; 10000 nM): 117% | relative viability EC50 (Caco-2 [5]): > 10 µM | relative viability EC50 (Calu-3 [6]): > 10 µM | relative viability EC50 (HepG2 [7]): > 10 µM | relative viability EC50 (U2OS [14]): 2.24 µM | relative viability EC50 (Vero E6 [8]): > 10 µM | drug sensitivity score (Caco-2 [9]): 0.5 | drug sensitivity score (Calu-3 [10]): 0 | drug sensitivity score (HepG2 [11]): 0 | drug sensitivity score (U2OS [15]): 5.4 | drug sensitivity score (Vero E6 [12]): 0

O=c1c2ccccc2[se]n1-c1ccccc1 [Ebselen]
cell viability (Caco-2 [1]; 1 nM): 102% | cell viability (Caco-2 [1]; 10 nM): 89.2% | cell viability (Caco-2 [1]; 100 nM): 104% | cell viability (Caco-2 [1]; 1000 nM): 91.6% | cell viability (Caco-2 [1]; 10000 nM): 92.2% | cell viability (Calu-3 [2]; 1 nM): 104% | cell viability (Calu-3 [2]; 10 nM): 91.8% | cell viability (Calu-3 [2]; 100 nM): 107% | cell viability (Calu-3 [2]; 1000 nM): 83.1% | cell viability (Calu-3 [2]; 10000 nM): 87.7% | cell viability (HepG2 [3]; 1 nM): 113% | cell viability (HepG2 [3]; 10 nM): 98.2% | cell viability (HepG2 [3]; 100 nM): 103% | cell viability (HepG2 [3]; 1000 nM): 100% | cell viability (HepG2 [3]; 10000 nM): 106% | cell viability (U2OS [13]; 1 nM): 103% | cell viability (U2OS [13]; 10 nM): 95.8% | cell viability (U2OS [13]; 100 nM): 105% | cell viability (U2OS [13]; 1000 nM): 98.9% | cell viability (U2OS [13]; 10000 nM): 74.5% | cell viability (Vero E6 [4]; 1 nM): 97.6% | cell viability (Vero E6 [4]; 10 nM): 100% | cell viability (Vero E6 [4]; 100 nM): 105% | cell viability (Vero E6 [4]; 1000 nM): 92.8% | cell viability (Vero E6 [4]; 10000 nM): 93.7% | relative viability EC50 (Caco-2 [5]): > 10 µM | relative viability EC50 (Calu-3 [6]): > 10 µM | relative viability EC50 (HepG2 [7]): > 10 µM | relative viability EC50 (Vero E6 [8]): > 10 µM | drug sensitivity score (Caco-2 [9]): 0 | drug sensitivity score (Calu-3 [10]): 1.7 | drug sensitivity score (HepG2 [11]): 0 | drug sensitivity score (U2OS [15]): 1.1 | drug sensitivity score (Vero E6 [12]): 0

CCCC(=O)O[C@]1(C(=O)COC(C)=O)CC[C@H]2[C@@H]3C[C@H](F)C4=CC(=O)C=C[C@]4(C)[C@@]3(F)[C@@H](O)C[C@@]21C [difluprednate]
cell viability (Caco-2 [1]; 1 nM): 96.6% | cell viability (Caco-2 [1]; 10 nM): 93.2% | cell viability (Caco-2 [1]; 100 nM): 98.3% | cell viability (Caco-2 [1]; 1000 nM): 101% | cell viability (Caco-2 [1]; 10000 nM): 91.8% | cell viability (Calu-3 [2]; 1 nM): 106% | cell viability (Calu-3 [2]; 10 nM): 90.7% | cell viability (Calu-3 [2]; 100 nM): 87.7% | cell viability (Calu-3 [2]; 1000 nM): 90.5% | cell viability (Calu-3 [2]; 10000 nM): 102% | cell viability (HepG2 [3]; 1 nM): 97.5% | cell viability (HepG2 [3]; 10 nM): 93.7% | cell viability (HepG2 [3]; 100 nM): 107% | cell viability (HepG2 [3]; 1000 nM): 105% | cell viability (HepG2 [3]; 10000 nM): 88.3% | cell viability (U2OS [13]; 1 nM): 99.5% | cell viability (U2OS [13]; 10 nM): 93.3% | cell viability (U2OS [13]; 100 nM): 93.4% | cell viability (U2OS [13]; 1000 nM): 94.1% | cell viability (U2OS [13]; 10000 nM): 92.1% | cell viability (Vero E6 [4]; 1 nM): 96.9% | cell viability (Vero E6 [4]; 10 nM): 97% | cell viability (Vero E6 [4]; 100 nM): 95.3% | cell viability (Vero E6 [4]; 1000 nM): 98.9% | cell viability (Vero E6 [4]; 10000 nM): 94.2% | relative viability EC50 (Caco-2 [5]): > 10 µM | relative viability EC50 (Calu-3 [6]): > 10 µM | relative viability EC50 (HepG2 [7]): > 10 µM | relative viability EC50 (U2OS [14]): > 10 µM | relative viability EC50 (Vero E6 [8]): > 10 µM | drug sensitivity score (Caco-2 [9]): 0 | drug sensitivity score (Calu-3 [10]): 0 | drug sensitivity score (HepG2 [11]): 0 | drug sensitivity score (U2OS [15]): 0 | drug sensitivity score (Vero E6 [12]): 0

O=C(Nc1ccc(Br)cc1)c1cc(Br)cc(Br)c1O [tribomsalan]
cell viability (Caco-2 [1]; 1 nM): 90.7% | cell viability (Caco-2 [1]; 10 nM): 90.3% | cell viability (Caco-2 [1]; 100 nM): 94.7% | cell viability (Caco-2 [1]; 1000 nM): 105% | cell viability (Caco-2 [1]; 10000 nM): 76.3% | cell viability (Calu-3 [2]; 1 nM): 94.4% | cell viability (Calu-3 [2]; 10 nM): 92.2% | cell viability (Calu-3 [2]; 100 nM): 93.2% | cell viability (Calu-3 [2]; 1000 nM): 102% | cell viability (Calu-3 [2]; 10000 nM): 91.2% | cell viability (HepG2 [3]; 1 nM): 102% | cell viability (HepG2 [3]; 10 nM): 104% | cell viability (HepG2 [3]; 100 nM): 94.5% | cell viability (HepG2 [3]; 1000 nM): 99.7% | cell viability (HepG2 [3]; 10000 nM): 82.7% | cell viability (U2OS [13]; 1 nM): 96.6% | cell viability (U2OS [13]; 10 nM): 98% | cell viability (U2OS [13]; 100 nM): 96% | cell viability (U2OS [13]; 1000 nM): 102% | cell viability (U2OS [13]; 10000 nM): 96.4% | cell viability (Vero E6 [4]; 1 nM): 93.5% | cell viability (Vero E6 [4]; 10 nM): 100% | cell viability (Vero E6 [4]; 100 nM): 91.1% | cell viability (Vero E6 [4]; 1000 nM): 93.7% | cell viability (Vero E6 [4]; 10000 nM): 98.6% | relative viability EC50 (Caco-2 [5]): > 10 µM | relative viability EC50 (Calu-3 [6]): > 10 µM | relative viability EC50 (HepG2 [7]): > 10 µM | relative viability EC50 (U2OS [14]): > 10 µM | relative viability EC50 (Vero E6 [8]): > 10 µM | drug sensitivity score (Caco-2 [9]): 0.6 | drug sensitivity score (Calu-3 [10]): 0 | drug sensitivity score (HepG2 [11]): 0.4 | drug sensitivity score (U2OS [15]): 0 | drug sensitivity score (Vero E6 [12]): 0
